Holding throughout (assay type): cell-based
The subject of experiment [1] is HT29-GFP colorectal cancer cells. Put plainly: HT29-GFP colorectal cancer cell killing within ECM-filled 2-lane Mimetas ORGANOPLATE (GFP cell debris image analysis). The settings on record: 10 μM, 5 days, 7-day old single cell colonies, 750 cells. How it is done: Single cells were seen to be uniformly dispensed across the microfluidic lanes and grew into single cell colonies over time.
2-lane Mimetas ORGANOPLATE® wells harboring 7-day old single cell colonies with either 500 cells or 750 cells were treated with 0 or 10 μM Bortezomib (sold under the brand name Velcade in the United States; CAS 179324-69-7) to observe cell killing within the channel over 5 days.

Another experiment relates to activated CD3+ T-cells. Put plainly: Activated CD3+ T-cell chemotaxis through end-to-end collagen-matrigel ECM plug in 2-lane Mimetas ORGANOPLATE
The settings on record: for lowest concentration with robust chemotaxis response (migration length) compared to blank media control / lowest concentration with significantly higher total number of responding activated T-cells over blank media controls: 10,000 cells, 96 hours; for lowest concentration with robust chemotaxis response (migration length) compared to blank media control: chemokine refreshed at 48 hours; for lowest concentration with significantly higher total number of responding activated T-cells over blank media controls: one-way ANOVA. As for the experimental part: 50 μl of 37° C. warmed 1×PBS were added to wells in columns 3, 7, 11, 15, 19 and 23 observation windows of Mimetas 2-lane ORGANOPLATE® and stored at 4° C. 5 μl of ice-cold 2 mg/ml collagen mixed with 10% (v/v) of low endotoxin matrigel GFR were added to wells in columns 4, 8, 12, 16, 20 and 24 of chilled Mimetas 2-lane ORGANOPLATE® to potentially create aligned collagen fibers within the microfluidic channels. After the ECM filled all the microfluidic channels, 1 μl of ice-cold ECM was quickly added to wells in columns 1, 2, 5, 6, 9, 10, 13, 14, 17, 18, 21, and 22 to allow for contact to be established between the ECM footprints. 4.5 ml of 37° C. warmed ultrapure water was added to both the ends of sterile MicroClime Environmental Lid and placed atop the Mimetas ORGANOPLATE®. The assembly was placed in a humidified 37° C. cell culture incubator for 45 minutes to ensure complete gelation of all the wells throughout the plate and used for the experiment.
After the gelation, 50 μl of blank media was added to the wells of columns 1, 5, 9, 13, 17 and 21 followed by 50 μl of the desired chemokine at different concentrations in wells of columns 4, 8, 12, 16, 20 and 24. 1:1000 (v/v) NUCLIGHT® Rapid Red dye stained and washed activated CD3+ T-cells were quickly added towards the mouth of the channel allowing increased deposition of cells closer to the mouth of the channel in the wells of column 2, 6, 10, 14, 18 and 22 in RPMI media with 0.5% FBS. CD3+ T-cells were activated for 48 hours prior the experiment with 1:500 (v/v) TRANSACT® beads with 20 IU/mL IL2 in RPMI media with 10% FBS. The ORGANOPLATE® was left undisturbed for 3-5 minutes to allow T-cell settling followed by placing them in humidified 37° C. incubator for the duration of the experiment. Chemokines were replaced as needed after 48 and 96 hours along with the 37° C. warmed ultrapure water within the sterile MicroClime Environmental Lid.
Wells from columns 2, 3, 4, 6, 7, 8, 10, 11, 12, 14, 15, 16, 18, 19, 20, 22, 23 and 24 were imaged in the far red and bright field channels at 4× magnification on days 0, 1, 2, 3, 4, 5 and 6 using an INCELL™ 6500 confocal microscope to identify the cells within the migrating channel. Z-stack of six images at different focal planes 50 μm apart spanning the thickness of the microfluidic channel were captured followed by maximum projection to create a singular image of the migratory channel. Images were then transferred to COLUMBUS™ image segmentation software to extract the X-Y location of the migratory CD3+ T-cells within the microfluidic channel. Area cut-offs and positive signal over background were used to accurately identify the fluorescent T-cells over the background.
The X-Y data of the CD3+ T-cells was transferred to SPOTFIRE™ analytics platform for image representation. The X axis location of the migratory T-cells across 4 different replicate wells were pooled and represented as a horizontal violin plot using the GRAPHPAD™ prism. Kruskal-Wallis test for statistical significance was used to understand the significance of a chemokine concentration in driving increased migration distance into the end-to-end solid ECM channel over blank media controls. Replicates were individually compared amongst each other to ensure significance between the sample and replicate and the lowest significance difference was represented in the graph. […]

A further experiment deals with naive CD3+ T-cells. Put plainly: Naive CD3+ T-cell chemotaxis through ECM plug in 2-lane Mimetas ORGANOPLATE
The conditions noted are these: 2.5 μM CXCR3 agonist. How it is done: Nuclight rapid red dye stained naive CD3+ T-cells were added closer to the mouth of the channel at the one end (well/frame 2 (102) of extracellular matrix (2 mg/mL collagen+10% (v/v) Matrigel GFR) filled within 2-lane Mimetas ORGANOPLATE®) to evaluate chemotaxis in response to the small molecule agonist applied to other end of the extracellular matrix plug (well/frame 4 (104)). Well/frame 1 (101) was filled with blank media. […] In order to enhance the adhesion of naïve T-cells to the extracellular matrix, 1 μg/mL of ICAM1 (Intercellular Adhesion Molecule 1, also known as Cluster of Differentiation 54 (CD54)) was also spiked into well/frame 2 of the assay system along with the T-cells. Chemotaxis potential was measured via confocal microscopy, identifying the number of naïve T-cells under migration in response to the chemokine gradient generated within the extracellular matrix.

`CC(C)C[C@H](NC(=O)[C@H](Cc1ccccc1)NC(=O)c1cnccn1)B(O)O` [Bortezomib]: the “number of GFP cell debris aggregates (cell killing) versus 0 μM” value in experiment [1] is “statistically significant increase”.
For “CXCL10: recombinant chemokine, R&D Systems catalog 266-IP”, in the experiment with activated CD3+ T-cells, the “lowest concentration with robust chemotaxis response (migration length) compared to blank media control” value came out at 37.5 nM and the “lowest concentration with significantly higher total number of responding activated T-cells over blank media controls” value is 150 nM.
With “CXCL12: recombinant chemokine, R&D Systems catalog 350-NS”, the “chemotaxis of activated CD3+ T-cells compared to 0 nM” value in the experiment with activated CD3+ T-cells (300 nM, 120 hours, cells in well 2, media in well 1, chemokine in well 4, refreshed after 48 hours) is given as “significantly higher chemotaxis”. Further, in the experiment on activated CD3+ T-cells, the “lowest concentration with robust chemotaxis response (migration length) compared to blank media control” value is on record as 37.5 nM and the “lowest concentration with significantly higher total number of responding activated T-cells over blank media controls” value is 18.75 nM.

B1: ICAM1: Intercellular Adhesion Molecule 1, also known as Cluster of Differentiation 54 (CD54) (protein, UniProt P05362 28-532, looked up)
Intercellular adhesion …: QTSVSPSKVILPRGGSVLVTCSTSCDQPKLLGIETPLPKKELLLPGNNRKVYELSNVQEDSQPMCYSNCPDGQSTAKTFLTVYWTPERVELAPLPSWQPVGKNLTLRCQVEGGAPRANLTVVLLRGEKELKREPAVGEPAEVTTTVLVRRDHHGANFSCRTELDLRPQGLELFENTSAPYQLQTFVLPATPPQLVSPRVLEVDTQGTVVCSLDGLFPVSEAQVHLALGDQRLNPTVTYGNDSFSAKASVSVTAEDEGTQRLTCAVILGNQSQETLQTVTIYSFPAPNVILTKPEVSEGTEVTVKCEAHPRAKVTLNGVPAQPLGPRAQLLLKATPEDNGRSFSCSATLEVAGQLIHKNQTRELRVLYGPRLDERDCPGNWTWPENSQQTPMCQAWGNPLPELKCLKDGTFPLPIGESVTVTRDLEGTYLCRARSTQGEVTRKVTVNVLSPRYEIVIITVVAAAVIMGTAGLSTYLYNRQRKIKKYRLQQAQKGTPMKPNTQATPP
For B1, the “effect of addition on number of naive T-cells responding to the chemokine gradient” value in the experiment with naive CD3+ T-cells (1 μg/mL in well 2, 35000 cells) is given as “did not influence”. Moreover, the “impact of inclusion on chemotaxis outcome” value with naive CD3+ T-cells (1 μg/mL in well 2, higher naive T-cell numbers (100,000-150,000)) is “non-significant impact”.
